{
  "source": "patent US9862748B2",
  "about": "“Peptide compounds and methods of production and use thereof” (priority 2012, dated 2018)",
  "key": {"[1]": {"system": "Acinetobacter baumannii ATCC® BAA-747™", "format": "cell-based", "conditions": "starting inoculum 1×10^6 CFU/ml; 60 to 180 minute incubation", "method_in_brief": "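Peptides at 25, 12.5, 6.25 and 3.12 μM were incubated with 1×10^6 CFU/ml bacteria at pH 5.5 or 7.2, with tryptone saline as negative control and gentamicin (4 μg/ml) as positive control. Incubation was 60 min for A. baumannii and 180 min for P. aeruginosa. Surviving CFU counted after overnight plating, expressed as log reduction in CFU/ml.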"}, "[2]": {"system": "Salmonella typhimurium", "assay": "In vitro bactericidal assay", "format": "cell-based", "protocol": "In vitro bactericidal activity: The three peptide compounds BCC01-5RMP (SEQ ID NO: 21), BCC02-5RMP (SEQ ID NO: 22), and BCC03-5RMP (SEQ ID NO: 23) were assayed for in vitro bactericidal activity against Pseudomonas aeruginosa, Escherichia coli, Salmonella typhimurium, and Acinetobacter baumannii. The starting inoculum for all experiments was 1×10^6 colony forming units (CFU)/ml. The CFU remaining at the end of 60 to 180 minute incubation was determined, and the data plotted as a log reduction in CFU/ml."}, "[3]": {"system": "Pseudomonas LPS", "assay": "LPS binding, Limulus Amebocyte Lysate (LAL) assay", "protocol": "(§1) The well-characterized response of RAW264.7 macrophage cells was used to produce tumor necrosis-factor-alpha (TNF-α) in response to LPS to determine whether the peptides could dampen the release of this cytokine. […] Importantly, pre-treatment (3 hours prior to LPS addition) as well as post-treatment of the RAW264.7 cells (3 hours post LPS addition) with peptide dampened the cytokine release. […] The finding that the novel peptides bind and neutralize the effect of Pseudomonas LPS is of critical importance since this ensures that the novel therapeutic peptide compounds described herein will not only kill the bacteria, but will also neutralize the LPS endotoxin released by the bacteria which plays such an important role in the rapid progression of sepsis.\n(§2) BCC01-5RMP (SEQ ID NO: 21), BCC02-5RMP (SEQ ID NO: 22), and BCC03-5RMP (SEQ ID NO: 23) were tested for their ability to bind lipopolysaccharide (LPS) using the limulus amebocyte lysate method (LAL). […] There was no statistical difference in their ability to bind LPS using the LAL technique. The ability of the peptides to neutralize LPS was assessed by determining their ability to attenuate the release of tumor necrosis factor-alpha (TNF-α) from LPS-stimulated RAW264.7 cells (a mouse macrophage cell line). […] No significant differences were observed between the three peptides to neutralize LPS as measured by cytokine release."}, "[4]": {"system": "RAW264.7 cells", "assay": "LPS neutralization: TNF-α release from LPS-stimulated RAW264.7 cells", "format": "cell-based, mouse", "protocol": "as §1, §2"}, "[5]": {"system": "Pseudomonas clinical isolate B64", "assay": "BIOSCREEN C growth assay / MIC, antibiotic in combination with peptide", "format": "cell-based, P. aeruginosa", "protocol": "The peptide and antibiotics were set up in the wells of the microtiter plate at starting ratios of MIC equivalents of antibiotic:peptide at 3:1, 1:1, and 1:3. They were serially diluted to concentrations well below suboptimal/sublethal levels of the antibiotic and peptide. The organism was added (1×10^5 CFU/well), the BIOSCREEN C™ assay (Growth Systems USA, Piscataway, N.J.) was performed, and data was collected over 24 hours."}},
  "note": "Square brackets hold non-standard residues; d marks the D form. Peptide text beside a SMILES is read from it. AEEA = NCCOCCOCC(=O)O",
  "data": [
    {"smiles": "CC[C@H](C)[C@H](NC(=O)[C@H](CC(C)C)NC(=O)[C@H](C)NC(=O)CNC(=O)CNC(=O)[C@H](CO)NC(=O)[C@H](Cc1ccccc1)NC(=O)[C@H](Cc1c[nH]cn1)NC(=O)[C@H](CCCNC(=N)N)NC(=O)CNC(=O)[C@H](CCC(N)=O)NC(=O)[C@H](CC(N)=O)NC(=O)[C@H](CCCNC(=N)N)NC(=O)[C@H](CCCNC(=N)N)NC(=O)[C@H](CCCNC(=N)N)NC(=O)[C@H](CCCNC(=N)N)NC(=O)COCCOCCNC(=O)COCCOCCN)C(=O)N[C@@H](Cc1c[nH]cn1)C(=O)N[C@@H](C)C(=O)N[C@@H](CCCNC(=N)N)C(=O)N[C@@H](Cc1ccccc1)C(=O)N[C@H](C(=O)N[C@@H](CCSC)C(=O)N[C@H](C(=O)N[C@@H](C)C(=O)N[C@@H](C)C(=O)N[C@@H](CO)C(=O)N[C@@H](CS)C(=O)N[C@@H](Cc1ccccc1)C(=O)N[C@@H](CCC(N)=O)C(=O)N[C@@H](CCCNC(=N)N)C(=O)O)[C@@H](C)O)C(C)C", "note": "[BCC02-5RMP] (H-[AEEA][AEEA]RRRRNQGRHFSGGALIHARFVMTAASCFQR-OH; N-terminus and C-terminus assumed)", "values": [
      {"measurement": "activity against Acinetobacter baumannii", "setting": "[1]", "value": "most active"},
      {"measurement": "activity against Salmonella typhimurium", "setting": "[2]", "value": "strong, but lesser activity"},
      {"measurement": "binding of Pseudomonas LPS (LAL)", "setting": "[3]", "value": "bound Pseudomonas LPS"},
      {"measurement": "release of TNF-α in response to Pseudomonas LPS", "setting": "[4]", "value": "attenuate the release of TNF-α"},
      {"measurement": "effect of added peptide on sensitivity of the bacterium to Cefotaxime", "setting": "[5]; 3.04 μg/ml peptide with Cefotaxime 2.81 μg/ml, P=0.0143", "value": "now sensitive"},
      {"measurement": "effect of added peptide with Levofloxacin, Fractional area (FA)", "setting": "[5]; 3.04 μg/ml peptide with Levofloxacin 3.6 μg/ml", "value": "shows significance"},
      {"measurement": "effect of added peptide on killing by Ciprofloxacin", "setting": "[5]; 4.05 μg/ml peptide with […] Ciprofloxacin, P=0.0003", "value": "significantly affected killing"},
      {"measurement": "effect of added peptide on the killing effect of Cefotaxime", "setting": "[5]; 0.34 and 1.0 μg/ml peptide with Cefotaxime 2.81 μg/ml", "value": "no statistical effect"}
    ]}
  ]
}
